Key:
[1] = tested on: rice blast fungus (Magnaporthe grisea); assay type: in vivo; details: rice (Nipponbare), 500 ppm foliar spray, contact with infected seedling, 6 days
[2] = tested on: wheat rust fungus (Puccinia recondita); assay: Test Example 2: wheat rust, foliar spray preventive test; assay type: in vivo; details: wheat (Shirogane), 500 ppm foliar spray, inoculated 5 days after spraying, assessed after 1 + 8 days

| Compound | lesion areas on treated plant relative to non-treated plant [1] [%] | area of the lesion on treated plant relative to untreated plant [2] [%] |
| --- | --- | --- |
| COC(=O)Nc1cccc(C)c1COc1ccc(-c2nccc(C)n2)cc1C [Compound 2] | ≤ 30 |  |
| COC(=O)Nc1ccccc1COc1ccc(-c2ncccn2)cc1 [methyl N-(2-{[4-(pyrimidine-2-yl)phenoxy)methyl}phenyl)carbamate] |  | ≥ 70 |
